Measured values taken from paper PMC1764434 (PLoS Clinical Trials, 2007).
“Also recorded” adds a separate entry of the source. Like-named read-outs stand apart in the source and are kept apart here.

What was measured:
healthy volunteers [1] = assay: Clinical adverse events (weekly diaries, blinded relatedness assessment), Phase I RCT; format: in vivo, human
Procedure: Adverse events (AEs) were recorded in weekly diaries provided to each volunteer. The relatedness of these AEs to the study drugs was assessed by two physicians (FM, CH) based on temporal association and biological plausibility using five categories: definitely not, unlikely, possibly, probably, and definitely related. The AEs reported in this manuscript include all AEs assessed as possibly, probably, or definitely related.
Quantitative data are presented as the mean ± standard deviation or as median and range, as appropriate. […] Due to a lack of normality, the nonparametric Mann-Whitney U test was used to compare independent samples; the Wilcoxon or Friedman test (whichever was appropriate) was used to compare repeated measures of the QTc interval. All statistical tests were two-sided with an α (significance level) of 0.05. Analyses were performed using the SPSS 11.0 statistical software (SPSS, Chicago, Illinois, United States). All analyses were based on allocation by intent-to-treat.

[2] = Blood pharmacokinetics after oral dosing (fluorescence HPLC, noncompartmental WinNonlin model); format: in vivo, human; conditions: for Cmax / Vd/F / MRT / Tmax / half-life / AUC: human, whole blood; for Cmax: read-out: Cmax; for MRT: read-out: MRT (converted); for AUC: po
Procedure: Study drugs were administered in the GCRC on an empty stomach between 8 and 9 AM the morning after admission (after fasting for ≥ 10 h).

healthy volunteers [3] = assay: Post-dose clinical and laboratory follow-up (hematology, chemistry, organ toxicity); format: in vivo, human
[4] = test system: CQ-resistant P. falciparum; conditions: cited from earlier work
P. cynomolgi = conditions: cited from earlier work
[5] = test system: CQ-resistant P. falciparum; conditions: CQ-resistant P. falciparum in the squirrel monkey; cited from earlier work
animals = conditions: preclinical studies; cited from earlier work
[6] = cited from earlier work
QT interval = assay: Effects on the QT interval (ECG and Holter recordings, Bazett correction); conditions: for QTc interval, Baseline: before dosing
Procedure: The effects of the study drugs on the QT interval were assessed by comparing QT intervals before dosing with QT intervals 4 h after dosing, and at the 2 wk follow-up. […] QT intervals were measured manually and electronically (Rozinn Electronics, Glendale, New York, United States). […] Correction of the QT interval for heart rate (i.e., QTc) was performed using Bazett's formula [27].

[7] = Urinary excretion and renal clearance (24-hour urine collections, days 1-3)
[8] = 1,500 mg CQ (n = 15) / 1,750 mg AQ-13 (n = 14)
[9] = 100, 300 mg doses, n = 16 per drug
[10] = 600/700 mg, AQ-13 n = 25, CQ n = 24
[11] = all doses combined, 63 volunteers per drug
[12] = 1750 mg, 1,750 mg oral over 3 d, median (range)
[13] = single oral 600 mg dose, median (range)
[14] = single oral 700 mg adjustment dose, median (range)
[15] = 2 wk follow-up, individual participant
[16] = 1,750 mg AQ-13, 1,500 mg CQ, mean ± SD
[17] = 600/700 mg AQ-13, 600 mg CQ, mean ± SD
[18] = days 1-3, 1,750 mg AQ-13 / 1,500 mg CQ

With `CCN(CC)CCCNc1ccnc2cc(Cl)ccc12` [AQ-13] the “related adverse events: None” value (healthy volunteers [1]; 10 mg dose, n = 8 per drug) was 0, the “Abdominal pain, number (%)” value (healthy volunteers [1]; [8]) was 1 (7%) and the “Blurred vision, number (%)” value (healthy volunteers [1]; [8]) was 2 (14%). For the same molecule, the “Diarrhea, number (%)” value (healthy volunteers [1]; [8]) was 4 (29%), the “Difficulty focusing/visual floating objects, number (%)” value (healthy volunteers [1]; [8]) was 2 (14%) and the “Lightheadedness/Dizziness, number (%)” value (healthy volunteers [1]; [8]) was 7 (50%). The “Nausea, number (%)” value (healthy volunteers [1]; [8]) was 5 (36%), the “Vomiting, number (%)” value (healthy volunteers [1]; [8]) was 2 (14%) and the “Weakness/fatigue, number (%)” value (healthy volunteers [1]; [8]) was 2 (14%). For the same molecule, the “Headache, number (%)” value (healthy volunteers [1]; 1,500 mg CQ (n = 15) / 1,750 mg AQ-13 (n = 14) over 3 d) was 5 (36%), the “Headache, volunteers with related AE, number (%)” value (healthy volunteers [1]; [9]) was 2 (12%) and the “Lightheadedness/Dizziness, number (%)” value (healthy volunteers [1]; [9]) was 0. The “Nausea, number (%)” value (healthy volunteers [1]; [9]) was 1 (6%), the “Abdominal pain, number (%)” value (healthy volunteers [1]; [10]) was 2 (8%) and the “Diarrhea, number (%)” value (healthy volunteers [1]; [10]) was 2 (8%). For the same molecule, the “Ear symptoms, number (%)” value (healthy volunteers [1]; [10]) was 0, the “Headache, number (%)” value (healthy volunteers [1]; [10]) was 10 (40%) and the “Lightheadedness/Dizziness, number (%)” value (healthy volunteers [1]; [10]) was 4 (16%). The “Loss of appetite, number (%)” value (healthy volunteers [1]; [10]) was 3 (12%), the “Nausea, number (%)” value (healthy volunteers [1]; [10]) was 2 (8%) and the “Vomiting, number (%)” value (healthy volunteers [1]; [10]) was 2 (8%). For the same molecule, the “drug-related GI symptoms, number of reports” value (healthy volunteers [1]; all doses combined) was 28 reports, the “drug-related lightheadedness/dizziness, volunteers/total” value (healthy volunteers [1]; [11]) was 11/63 and the “volunteers reporting one or more GI symptoms/total” value (healthy volunteers [1]; [11]) was 14/63. The “blood level one hour after dosing as % of Cmax” value ([2]; 600 mg oral dose) was 52%, the Cl/F ([2]; 1,750 mg oral over 3 d, median (range)) was 14.0 (6.8–20.3) l/h and the “median oral clearance (range of medians across dose levels)” value ([2]; 600 and 1,500/1,750 mg doses) was 14.0 to 14.7 L/h. The Cmax ([2]; 1750 mg, 1,750 mg oral over 3 d (700+700+350 mg), median (range)) was 3000 nM, the Vd/F [2, 12] was 6660 L and the MRT [2, 12] was 13.4 days. For the same molecule, the Tmax ([2]; 1750 mg, 1,750 mg oral over 3 d, median (range), read-out: Tmax) was 1.14 days, the half-life ([2]; 1750 mg, 1,750 mg oral over 3 d, median (range), read-out: t½ (converted)) was 12.9 days and the Tmax ([2]; oral, 1,750 mg AQ-13 / 1,500 mg CQ, 27–28 h after the first dose, read-out: time of peak blood concentration after the second dose) was 0.125 to 0.167 days. It also gave an AUC ([2]; 600 mg, single oral 600 mg dose, median (range), read-out: AUCw1 (partial AUC for week 1)) of 71.8 µM·h, an AUC ([2]; 600 mg, single oral 600 mg dose, median (range), read-out: AUCτ (total area under the curve)) of 141 µM·h and an AUC ([2]; 700 mg, single oral 700 mg adjustment dose, median (range), read-out: AUCw1) of 96.3 µM·h. For the same molecule, the AUC ([2]; 700 mg, single oral 700 mg adjustment dose, median (range), read-out: AUCτ) was 342 µM·h, the AUC ([2]; 1750 mg, 1,750 mg oral over 3 d, median (range), read-out: AUCw1) was 226 µM·h and the AUC ([2]; 1750 mg, 1,750 mg oral over 3 d, median (range), read-out: AUCτ) was 493 µM·h. It also gave a Vd/F [2, 13] of 6710 L, a Vd/F [2, 14] of 6830 L and an MRT [2, 14] of 23.5 days. It also gave a Tmax ([2]; single oral 700 mg adjustment dose, median (range), read-out: Tmax) of 0.167 days, a half-life ([2]; single oral 700 mg adjustment dose, median (range), read-out: t½ (converted)) of 17.9 days and a Cmax ([2]; single oral 600 mg dose (CQ base equivalent), median (range)) of 1400 nM. For the same molecule, the MRT [2, 13] was 10.5 days, the Tmax ([2]; single oral 600 mg dose, median (range), read-out: Tmax) was 0.167 days and the half-life ([2]; single oral 600 mg dose, median (range), read-out: t½ (terminal elimination half-life) (converted)) was 14.3 days. The Cmax [2, 14] was 1600 nM, the linearity of pharmacokinetics ([2]; oral doses in healthy volunteers) was “linear pharmacokinetics” and the “Cl/F (apparent oral clearance)” value [2, 13] was 14.7 (7.0–31.1) l/h. For the same molecule, the Cl/F [2, 14] was 11.8 (8.5–19.1) l/h, the “ALT in one participant with abnormal liver function tests” value (healthy volunteers [3]; [15]) was 149 and the “AST in one participant with abnormal liver function tests” value (healthy volunteers [3]; [15]) was 135 U/l. The “alkaline phosphatase in one participant with abnormal liver function tests” value (healthy volunteers [3]; [15]) was 146, the “bilirubin in one participant with abnormal liver function test” value (healthy volunteers [3]; [15]) was 1.5 mg/dL and the “volunteers with mildly abnormal liver function tests” value (healthy volunteers [3]; 2 wk follow-up, AQ-13 100 and 300 mg doses, CQ 1,500 mg dose) was “two”. For the same molecule, the “hematologic or chemical toxicities on repeat laboratory testing” value (healthy volunteers [3]; 4 d after drug administration) was “no hematologic or chemical toxicities”, the organ toxicity (healthy volunteers [3]; any dose tested, inpatient exams, 2 and 4 wk follow-up) was “No hematologic, hepatic, renal, or other organ toxicity was observed; also recorded: no clinical evidence for end-organ toxicity” and the “activity against resistant malaria parasites in vitro” value [4] was “active against resistant malaria parasites”. For the same molecule, the “activity in vivo in monkey model” value (P. cynomolgi; P. cynomolgi in the rhesus monkey) was “active in vivo”, the “activity in monkey models of human malaria compared with AQ-21” value (P. cynomolgi; both monkey models, ref Cogswell, et al., unpublished data) was “more active” and the “activity in vivo in monkey model” value [5] was “active in vivo”. The “toxicity in animals in comparison with CQ” value (animals) was “no differences in toxicity”, the “clearance in preclinical studies in comparison with CQ” value [6] was “cleared more rapidly than CQ” and the “oral bioavailability in comparison with CQ” value ([6]; rats and monkeys, GLP preclinical studies by SRI International) was “less than that of CQ”. For the same molecule, the “mean QTc prolongation after the first dose (day 1)” value (QT interval; 1,500 mg CQ (first 600 mg dose) / 1,750 mg AQ-13 (first 700 mg dose)) was 4 ms, the “additional QTc increase after the second dose (day 2)” value (QT interval; 1,500 mg CQ / 1,750 mg AQ-13) was 6 ms and the “QTc interval, Baseline” value (QT interval; 1,750 mg AQ-13 (n = 13), 1,500 mg CQ (n = 14), mean ± SD) was 397 ± 16 ms. For the same molecule, the “QTc interval, 2 wk follow-up” value (QT interval; [16]) was 402 ± 13 ms, the “QTc interval, 4–5 h post-dose (day 1)” value (QT interval; [16]) was 401 ± 14 ms and the “QTc interval, 4–5 h post-dose (day 2)” value (QT interval; [16]) was 407 ± 11 ms. The “QTc interval, 4–5 h post-dose (day 3)” value (QT interval; [16]) was 400 ± 11 ms, the “mean QTc prolongation, females” value (QT interval; 1,750 mg AQ-13 / 1,500 mg CQ) was 12 ms and the “mean increase in the QTc interval from baseline” value (QT interval; 1,750 mg AQ-13 / 1,500 mg CQ, 4 h after the second dose on day 2) was 10 ms. For the same molecule, the “QTc interval, Baseline” value (QT interval; 600/700 mg AQ-13 (n = 25), 600 mg CQ (n = 24), mean ± SD) was 403 ± 17 ms, the “QTc interval, 2 wk follow-up” value (QT interval; [17]) was 405 ± 18 ms and the “QTc interval, 4–5 h post-dose (day 1)” value (QT interval; [17]) was 414 ± 17 ms. The “maximal prolongation of the QTc interval from baseline at the individual level” value (QT interval; 600/700 mg dose) was 42 ms, the “maximal prolongation of the QTc interval from baseline at the individual level” value (QT interval; 1,500/1,750 mg dose) was 35 ms and the “mean increase in the QTc interval from baseline, females” value (QT interval; 4 h after 600 mg CQ or 600/700 mg AQ-13) was 18 ms. For the same molecule, the “mean QTc interval change from baseline, males” value (QT interval; 4 h after 600 mg CQ or 600/700 mg AQ-13, not significant) was 1 ms, the “mean increase in the QTc interval from baseline” value (QT interval; 4 h after 600 mg CQ or 600 or 700 mg AQ-13) was 11 ms and the “arrhythmias or other cardiac AEs” value (QT interval; all doses) was “no arrhythmias or other cardiac AEs; also recorded: no cardiac AEs”. The “amount of unchanged drug recovered from 24 hour urine collections” value [7, 18] was 443 µmol, the “unchanged drug recovered from 24 hour urine collections, % of total oral dose” value [7, 18] was 8.4% and the CL renal ([7]; human, urine and whole blood, po, 1750 mg) was 55 mL/min.
